Counter-ions that a name gives are not always drawn.
How the values were obtained:
[1] = system: Wistar rats with dimethyl hydrazine-induced colorectal cancer; assay: Aberrant crypt foci (ACF) count in dimethyl hydrazine-induced colorectal cancer rats (Example 1); assay type: in vivo; settings: for ACF AC = 1 / ACF AC = 2 / ACF AC = 3 / ACF AC ≧ 4 / The total number of ACF: DMH rats, week 18; for inhibitory effect on ACF, trend with dose: low, medium, high dose groups, end of week 18
Text: (§1) Wistar rats with dimethyl hydrazine-induced colorectal cancer were used as the model to study the chemoprevention by the combined administration of vitamin D3 and metformin hydrochloride for colorectal cancer and the effect on colorectal cancer.
(§2) Experimental animals were randomly divided into 11 groups (each group having 10), including blank control group, model control group, low, medium and high dose groups of vitamin D3, low, medium and high dose groups of metformin, and three groups of different doses of vitamin D3 in combination with metformin. Except for the blank control group, other groups were subcutaneously injected with dimethyl hydrazine once a week respectively for 18 weeks, to induce colorectal cancer model. Dimethylhydrazine was dissolved in sodium chloride injection, and into the solution, 5% NaOH solution was added to adjust pH to 6.5-7.0, thereby obtaining a 20 mg/ml solution. The resulting solution was filtered through 0.22 μm membrane, and prepared extemporaneously.
(§3) Vitamin D3 was prepared into 10-100 U/ml solution by using soybean oil, and intragastrically administrated, once a day. Metformin was prepare into 10-100 mg/ml solution, and administrated intragastrically, once a day. The above drugs were administrated from day 0.
(§4) All the animals were sacrificed at the end of 18th weeks after administration. Body weights were recorded once a week during the experiment, and the administrated dose was calculated based on the body weight. The animals that died during the experiment were dissected and observed.
(§5) 3.2.2 The large intestine was separated immediately after the animals were sacrificed, the contents of the intestine were washed away with saline, and colorectal tumors were visually observed to calculate the number of tumors. The entire colon was paved between two layers of filter paper, placed in 10% neutral formalin and fixed for 24-48 h. The fixed large intestine tissue was put into 0.2% methylene blue and stained for 10 s. The aberrant crypt foci (ACF) of the whole large intestine were immediately observed under an optical microscope, and the number of the aberrant crypt in foci was counted respectively as one, two, three and four as well as greater than four.
(§6) 3.2.3 The data were processed by using Excel 2003 software for statistical analysis, and the obtained data were represented by mean±standard deviation (mean±SD). P<0.05 means that there is statistically significant difference between two groups.

[2] = system: Wistar rats with dimethyl hydrazine-induced colorectal cancer; assay: Tumorigenesis and tumor inhibition rate in dimethyl hydrazine-induced colorectal cancer rats (Example 1); assay type: in vivo; settings: for Mean number of tumors / Number of Animals with tumor: DMH rats; for Mean number of tumors / Number of Animals with tumor / Inhibition rate(%): week 18; for Number of Animals with tumor: of 10 animals; for Inhibition rate(%): tumor number vs model control
Text: as §1, §2, §3, §4, §5, §6

[3] = General situation and body weight of the rats (Example 1); settings: DMH rats; for Weight gain: after 18 weeks; for Body weight Week 0: baseline
Text: as §2, §3, §4
3.2.1 The animals were observed daily to record the general conditions, such as mental activity, food-taking, feces, hair, and the like.

[4] = system: Wistar rats with dimethyl hydrazine-induced colorectal cancer; assay: Tumorigenesis and inhibition rate, drugs administrated from day 15 (Example 9); assay type: in vivo; settings: drugs from day 15
Description: Example 1 was repeated, except that: The experimental animals were randomly divided into 11 groups, with 8 in each group. Except for the blank control group, other groups were subcutaneously injected of dimethylhydrazine once a week for 18 weeks to induce colorectal cancer model. Vitamin D3 was prepared into 10-100 U/ml solution by using soybean oil, and intragastrically administrated, once a day. Metformin was prepare into 10-100 mg/ml solution, and administrated orally, once a day. The above drugs were administrated from day 15 (after two weeks). During the experiments, tumorigenesis and inhibition rate were observed.

[5] = high dose group, Vitamin D 300 U/kg intragastrically once a day
[6] = low dose group, Vitamin D 30 U/kg intragastrically once a day
[7] = medium dose group, Vitamin D 100 U/kg intragastrically once a day
[8] = low, medium, high dose groups, end of week 18
[9] = medium dose group and high dose group, P<0.01
[10] = high dose group, metformin hydrochloride 360 mg/kg intragastrically once a day
[11] = low dose group, metformin hydrochloride 40 mg/kg intragastrically once a day
[12] = medium dose group, metformin hydrochloride 120 mg/kg intragastrically once a day

C=C1CC[C@H](O)C/C1=C/C=C1\CCC[C@]2(C)[C@@H]([C@H](C)CCCC(C)C)CC[C@@H]12 [vitamin D3, Vitamin D3]
ACF AC = 1 [1, 5]: 61.8 ± 11.1 | ACF AC = 2 [1, 5]: 14.9 ± 5.9 | ACF AC = 3 [1, 5]: 5.0 ± 1.6 | ACF AC ≧ 4 [1, 5]: 9.8 ± 2.2 | The total number of ACF [1, 5]: 91.5 ± 7.2 | ACF AC = 1 [1, 6]: 80.5 ± 7.6 | ACF AC = 2 [1, 6]: 16.1 ± 5.7 | ACF AC = 3 [1, 6]: 9.0 ± 2.3 | ACF AC ≧ 4 [1, 6]: 20.0 ± 4.1 | The total number of ACF [1, 6]: 125.6 ± 12.1 | inhibitory effect on ACF, trend with dose [1]: increased with the increase of dose | ACF AC = 1 [1, 7]: 67.9 ± 11.8 | ACF AC = 2 [1, 7]: 15.9 ± 5.7 | ACF AC = 3 [1, 7]: 4.8 ± 3.1 | ACF AC ≧ 4 [1, 7]: 16.1 ± 2.9 | The total number of ACF [1, 7]: 104.7 ± 14.3 | Mean number of tumors [2, 5]: 1.4 ± 0.8 | Mean number of tumors [2, 6]: 2.3 ± 0.5 | inhibition rate for tumor, trend with dose [2, 8]: increased with the increase of dose | number of tumors compared with the model control group [2, 9]: significantly reduced | Mean number of tumors [2, 7]: 1.7 ± 0.7 | Number of Animals with tumor [2, 5]: 8 | Number of Animals with tumor [2, 6]: 10 | Number of Animals with tumor [2, 7]: 10 | Inhibition rate(%) [2, 5]: 50.0% | Inhibition rate(%) [2, 6]: 17.9% | Inhibition rate(%) [2, 7]: 39.3% | Weight gain [3, 5]: 225.7% | Weight gain [3, 6]: 227.7% | Weight gain [3, 7]: 235.7% | Body weight Week 18 [3, 5]: 328.8 ± 23.6 | Body weight Week 0 [3, 5]: 101.5 ± 5.2 | Body weight Week 18 [3, 6]: 377.5 ± 27.5 | Body weight Week 0 [3, 6]: 100.3 ± 4.1 | Body weight Week 18 [3, 7]: 294.3 ± 22.1 | Body weight Week 0 [3, 7]: 102.9 ± 5.8 | inhibition rate for tumor, trend with dose ([4]; end of week 18): increased with the increased of dose | tumor number compared with the model control group [4, 9]: significantly reduced

CN(C)C(=N)N=C(N)N [metformin, metformin hydrochloride]
ACF AC = 1 [1, 10]: 61.5 ± 8.1 | ACF AC = 2 [1, 10]: 13.8 ± 3.4 | ACF AC = 3 [1, 10]: 4.0 ± 1.2 | ACF AC ≧ 4 [1, 10]: 9.7 ± 3.2 | The total number of ACF [1, 10]: 89.0 ± 12.7 | ACF AC = 1 [1, 11]: 70.4 ± 10.6 | ACF AC = 2 [1, 11]: 16.7 ± 3.6 | ACF AC = 3 [1, 11]: 6.7 ± 1.7 | ACF AC ≧ 4 [1, 11]: 16.5 ± 2.1 | The total number of ACF [1, 11]: 110.3 ± 13.0 | inhibitory effect on ACF, trend with dose [1]: same trend | ACF AC = 1 [1, 12]: 57.0 ± 10.7 | ACF AC = 2 [1, 12]: 16.6 ± 1.8 | ACF AC = 3 [1, 12]: 5.4 ± 1.6 | ACF AC ≧ 4 [1, 12]: 14.8 ± 3.0 | The total number of ACF [1, 12]: 93.8 ± 11.7 | Mean number of tumors [2, 10]: 1.6 ± 0.5 | Mean number of tumors [2, 11]: 2.0 ± 0.7 | number of tumors, trend with dose [2, 8]: reduced with the increase of dose | Mean number of tumors [2, 12]: 1.8 ± 0.4 | Number of Animals with tumor [2, 10]: 10 | Number of Animals with tumor [2, 11]: 10 | Number of Animals with tumor [2, 12]: 10 | Inhibition rate(%) [2, 10]: 42.9% | Inhibition rate(%) [2, 11]: 28.6% | Inhibition rate(%) [2, 12]: 35.7% | number of tumors, trend with dose ([4]; end of week 18): reduced with the increase of dose
